Source: PubChem BioAssay (NCI)
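Exposure lasted 48 hours, with cells grown in 96-well plates and compounds tested at five concentrations. TGI is the concentration that stops growth completely.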

Key:
Experiment in all cases: growth of human tumour cells (NCI), 48 h
786-0 renal = test system: 786-0 renal
A549 NSCLC = test system: A549 NSCLC
ACHN renal = test system: ACHN renal
BT-549 breast = test system: BT-549 breast
CAKI-1 renal = test system: CAKI-1 renal
CCRF-CEM leukemia = test system: CCRF-CEM leukemia
COLO 205 colon = test system: COLO 205 colon
DU-145 prostate = test system: DU-145 prostate
EKVX NSCLC = test system: EKVX NSCLC
HCC-2998 colon = test system: HCC-2998 colon
HCT-116 colon = test system: HCT-116 colon
HCT-15 colon = test system: HCT-15 colon
HL-60(TB) leukemia = test system: HL-60(TB) leukemia
HOP-62 NSCLC = test system: HOP-62 NSCLC
HS 578T breast = test system: HS 578T breast
HT29 colon = test system: HT29 colon
IGROV1 ovarian = test system: IGROV1 ovarian
K-562 leukemia = test system: K-562 leukemia
KM12 colon = test system: KM12 colon
M14 melanoma = test system: M14 melanoma
MCF7 breast = test system: MCF7 breast
MDA-MB-231 breast = test system: MDA-MB-231 breast
MDA-MB-435 = test system: MDA-MB-435
MDA-N = test system: MDA-N
MOLT-4 leukemia = test system: MOLT-4 leukemia
NCI-H23 lung = test system: NCI-H23 lung
NCI-H460 lung = test system: NCI-H460 lung
NCI-H522 lung = test system: NCI-H522 lung
NCI/ADR-RES ovarian = test system: NCI/ADR-RES ovarian
OVCAR-3 ovarian = test system: OVCAR-3 ovarian
OVCAR-4 ovarian = test system: OVCAR-4 ovarian
OVCAR-8 ovarian = test system: OVCAR-8 ovarian
PC-3 prostate = test system: PC-3 prostate
RPMI-8226 leukemia = test system: RPMI-8226 leukemia
RXF 393 renal = test system: RXF 393 renal
SF-268 CNS = test system: SF-268 CNS
SF-295 CNS = test system: SF-295 CNS
SF-539 CNS = test system: SF-539 CNS
SK-MEL-28 melanoma = test system: SK-MEL-28 melanoma
SK-MEL-5 melanoma = test system: SK-MEL-5 melanoma
SK-OV-3 ovarian = test system: SK-OV-3 ovarian
SN12C renal = test system: SN12C renal
SNB-19 CNS = test system: SNB-19 CNS
SNB-75 CNS = test system: SNB-75 CNS
SR leukemia = test system: SR leukemia
SW-620 colon = test system: SW-620 colon
T-47D breast = test system: T-47D breast
TK-10 renal = test system: TK-10 renal
U251 CNS = test system: U251 CNS
UACC-257 melanoma = test system: UACC-257 melanoma
UACC-62 melanoma = test system: UACC-62 melanoma
UO-31 renal = test system: UO-31 renal
A498 renal = test system: A498 renal
HOP-92 NSCLC = test system: HOP-92 NSCLC
LOX IMVI melanoma = test system: LOX IMVI melanoma
MALME-3M melanoma = test system: MALME-3M melanoma
NCI-H226 lung = test system: NCI-H226 lung
SK-MEL-2 melanoma = test system: SK-MEL-2 melanoma

`O=[N+]([O-])c1ccc(Cl)cc1N/N=C/c1cccc2cccnc12` was tested, and the TGI (786-0 renal) was greater than 100 µM, the TGI (A549 NSCLC) was greater than 100 µM and the TGI (ACHN renal) was greater than 100 µM. It also gave a TGI (BT-549 breast) greater than 100 µM, a TGI (CAKI-1 renal) greater than 100 µM and a TGI (CCRF-CEM leukemia) greater than 100 µM. It also gave a TGI (COLO 205 colon) greater than 100 µM, a TGI (DU-145 prostate) greater than 100 µM and a TGI (EKVX NSCLC) greater than 100 µM. It also gave a TGI (HCC-2998 colon) greater than 100 µM, a TGI (HCT-116 colon) greater than 100 µM and a TGI (HCT-15 colon) greater than 100 µM. It also gave a TGI (HL-60(TB) leukemia) greater than 100 µM, a TGI (HOP-62 NSCLC) greater than 100 µM and a TGI (HS 578T breast) greater than 100 µM. For the same compound, the TGI (HT29 colon) was greater than 100 µM, the TGI (IGROV1 ovarian) was greater than 100 µM and the TGI (K-562 leukemia) was greater than 100 µM. It also gave a TGI (KM12 colon) greater than 100 µM, a TGI (M14 melanoma) greater than 100 µM and a TGI (MCF7 breast) greater than 100 µM. For the same compound, the TGI (MDA-MB-231 breast) was greater than 100 µM, the TGI (MDA-MB-435) was greater than 100 µM and the TGI (MDA-N) was greater than 100 µM. For the same compound, the TGI (MOLT-4 leukemia) was greater than 100 µM, the TGI (NCI-H23 lung) was greater than 100 µM and the TGI (NCI-H460 lung) was greater than 100 µM. The TGI (NCI-H522 lung) was greater than 100 µM, the TGI (NCI/ADR-RES ovarian) was greater than 100 µM and the TGI (OVCAR-3 ovarian) was greater than 100 µM. The TGI (OVCAR-4 ovarian) was greater than 100 µM, the TGI (OVCAR-8 ovarian) was greater than 100 µM and the TGI (PC-3 prostate) was greater than 100 µM. For the same compound, the TGI (RPMI-8226 leukemia) was greater than 100 µM, the TGI (RXF 393 renal) was greater than 100 µM and the TGI (SF-268 CNS) was greater than 100 µM. For the same compound, the TGI (SF-295 CNS) was greater than 100 µM, the TGI (SF-539 CNS) was greater than 100 µM and the TGI (SK-MEL-28 melanoma) was greater than 100 µM. The TGI (SK-MEL-5 melanoma) was greater than 100 µM, the TGI (SK-OV-3 ovarian) was greater than 100 µM and the TGI (SN12C renal) was greater than 100 µM. The TGI (SNB-19 CNS) was greater than 100 µM, the TGI (SNB-75 CNS) was greater than 100 µM and the TGI (SR leukemia) was 38 µM. The TGI (SW-620 colon) was greater than 100 µM, the TGI (T-47D breast) was greater than 100 µM and the TGI (TK-10 renal) was greater than 100 µM. It also gave a TGI (U251 CNS) greater than 100 µM, a TGI (UACC-257 melanoma) greater than 100 µM and a TGI (UACC-62 melanoma) greater than 100 µM. It also gave a TGI (UO-31 renal) greater than 100 µM.

`O=C(OCCC12CC3CC(CC(C3)C1)C2)c1ccc(NCc2cc(O)ccc2O)cc1` was tested, and the TGI (786-0 renal) was 4.73 µM, the TGI (A498 renal) was 4.83 µM and the TGI (A549 NSCLC) was 15.7 µM. For the same compound, the TGI (ACHN renal) was 5.18 µM, the TGI (BT-549 breast) was 0.684 µM and the TGI (CAKI-1 renal) was 1.11 µM. The TGI (CCRF-CEM leukemia) was 15.9 µM, the TGI (COLO 205 colon) was 1.2 µM and the TGI (DU-145 prostate) was 13.7 µM. The TGI (EKVX NSCLC) was 4.88 µM, the TGI (HCT-116 colon) was 5.68 µM and the TGI (HCT-15 colon) was 3.53 µM. For the same compound, the TGI (HL-60(TB) leukemia) was 0.853 µM, the TGI (HOP-62 NSCLC) was 13.4 µM and the TGI (HOP-92 NSCLC) was 16.8 µM. It also gave a TGI (HS 578T breast) of 0.542 µM, a TGI (HT29 colon) of 10.6 µM and a TGI (IGROV1 ovarian) of 0.277 µM. It also gave a TGI (K-562 leukemia) of 10.6 µM, a TGI (KM12 colon) of 3.43 µM and a TGI (LOX IMVI melanoma) of 4.37 µM. The TGI (M14 melanoma) was 3.37 µM, the TGI (MALME-3M melanoma) was 3.81 µM and the TGI (MCF7 breast) was greater than 100 µM. For the same compound, the TGI (MDA-MB-231 breast) was 5.31 µM, the TGI (MDA-MB-435) was 3.84 µM and the TGI (MDA-N) was 3.38 µM. It also gave a TGI (MOLT-4 leukemia) of 10.3 µM, a TGI (NCI-H226 lung) of 8.62 µM and a TGI (NCI-H23 lung) of 3.28 µM. For the same compound, the TGI (NCI-H460 lung) was greater than 100 µM, the TGI (NCI-H522 lung) was 0.35 µM and the TGI (NCI/ADR-RES ovarian) was 11.1 µM. For the same compound, the TGI (OVCAR-3 ovarian) was 0.626 µM, the TGI (OVCAR-4 ovarian) was 3.17 µM and the TGI (PC-3 prostate) was 14.5 µM. For the same compound, the TGI (RPMI-8226 leukemia) was 0.666 µM, the TGI (RXF 393 renal) was 4.9 µM and the TGI (SF-268 CNS) was 12.7 µM. For the same compound, the TGI (SF-295 CNS) was 5.25 µM, the TGI (SF-539 CNS) was 2.08 µM and the TGI (SK-MEL-2 melanoma) was 2.83 µM. For the same compound, the TGI (SK-MEL-28 melanoma) was 2.24 µM, the TGI (SK-MEL-5 melanoma) was 2.51 µM and the TGI (SK-OV-3 ovarian) was 13.1 µM. The TGI (SN12C renal) was 11.2 µM, the TGI (SNB-19 CNS) was 3.23 µM and the TGI (SNB-75 CNS) was 2.99 µM. For the same compound, the TGI (SR leukemia) was 4.43 µM, the TGI (SW-620 colon) was 6.56 µM and the TGI (T-47D breast) was 0.584 µM. For the same compound, the TGI (TK-10 renal) was 4.65 µM, the TGI (U251 CNS) was 2.95 µM and the TGI (UACC-257 melanoma) was 2.38 µM. The TGI (UACC-62 melanoma) was 3.61 µM and the TGI (UO-31 renal) was 1.58 µM.
